# According to patent publication US5294724A, “4-hydroxytetrahydropyran-2-ones and the corresponding dihydroxycarboxylic acid derivatives, salts and esters and a process for their preparation” (priority 1989, dated 1994):
# Tests used:
# HMG-CoA reductase = target: T1, HMG-CoA reductase (Rattus norvegicus, UniProt P51639); experiment: Inhibition of HMG-CoA reductase activity in solubilized enzyme preparations from rat liver microsomes; assay type: biochemical; conditions: sodium salts of the dihydroxycarboxylic acids; mean of 3 parallel samples; read-out: IC50 (molar concentration necessary for a 50% inhibition)
# T1 construct: solubilized enzyme preparations from liver microsomes of rats; from tissue; host or cells: rat liver microsomes (cholestyramine-induced rats), solubilized
# T1 sequence (P51639 1-887): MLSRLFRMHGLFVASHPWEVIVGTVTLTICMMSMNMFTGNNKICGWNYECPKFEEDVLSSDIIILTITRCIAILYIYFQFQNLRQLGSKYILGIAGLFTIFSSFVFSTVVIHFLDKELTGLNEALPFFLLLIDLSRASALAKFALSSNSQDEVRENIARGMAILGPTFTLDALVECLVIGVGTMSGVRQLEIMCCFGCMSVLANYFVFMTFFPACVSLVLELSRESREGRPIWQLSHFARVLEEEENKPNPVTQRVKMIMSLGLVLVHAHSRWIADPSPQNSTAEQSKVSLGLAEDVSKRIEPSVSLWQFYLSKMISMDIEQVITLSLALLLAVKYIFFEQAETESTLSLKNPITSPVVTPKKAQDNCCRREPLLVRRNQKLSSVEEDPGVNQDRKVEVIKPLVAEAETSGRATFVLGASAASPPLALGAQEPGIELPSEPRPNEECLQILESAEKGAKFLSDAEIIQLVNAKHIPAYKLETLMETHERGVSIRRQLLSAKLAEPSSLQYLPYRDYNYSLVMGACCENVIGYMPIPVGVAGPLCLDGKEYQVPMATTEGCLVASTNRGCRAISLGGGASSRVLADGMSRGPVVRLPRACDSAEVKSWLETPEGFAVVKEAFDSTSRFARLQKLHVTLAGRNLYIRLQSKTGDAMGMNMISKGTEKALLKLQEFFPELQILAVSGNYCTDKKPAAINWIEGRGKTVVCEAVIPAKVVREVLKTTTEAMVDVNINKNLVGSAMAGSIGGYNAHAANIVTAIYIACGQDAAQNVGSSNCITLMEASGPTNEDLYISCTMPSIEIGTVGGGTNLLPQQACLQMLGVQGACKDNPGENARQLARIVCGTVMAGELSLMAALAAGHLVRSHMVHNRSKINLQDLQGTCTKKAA
# Method: 1) Inhibition of HKG-CoA reductase activity in solubilized enzyme preparations from rat liver microsomes
# HMG-CoA reductase activity was measured on solubilized enzyme preparations from liver microsomes of rats which had been induced by conversion into the day/night rhythm using cholestyramine (®Cuemid). (S,R)^14 C-HMG-CoA was used as a substrate, and the concentration of NADPH was maintained during the incubation by a regenerating system. The separation of ^14 C-mevalonate from substrate and other products (for example ^14 C-HMG) was carried out by column elution, the elution profile of each individual sample being determined. The regular addition of ^3 H-mevalonate was avoided as the determination gives the data relative to the inhibitory action. The enzyme-free control, the enzyme-containing normal mixture (=100%) and those containing preparation additives were in each case treated together in one series of experiments. The sodium salts of the dihydroxycarboxylic acids of the formula II were always employed as the preparation in this test. Each individual value was formed as the mean value of 3 parallel samples. The significance of the mean value differences between preparation-free and preparation-containing samples was evaluated by the t-test.
# HEP G2 cells = experiment: Inhibition of cholesterol biosynthesis in cell cultures (HEP G2 cells), incorporation of 14C-sodium acetate in cholesterol; assay type: cell-based; conditions: for IC50: Homo sapiens, HepG2, sodium salts, test compounds corrected by deviation of mevinolin sodium from its mean value, read-out: IC50 (concentration necessary for a 50% inhibition); for Relative potency in %: mevinolin sodium = 100, from IC50
# Method: 2) Inhibition of cholesterol biosynthesis in cell cultures (EEP G2 cells)
# Determination of the inhibition of the incorporation of ^14 C-sodium acetate in cholesterol
# Monolayers of HEP G2 cells in lipoprotein-free medium were preincubated with various concentrations of the sodium salts of the dihydroxycarboxylic acids of the formula II for 1 hour. After adding ^14 C-labeled sodium acetate, the incubation was continued for 3 hours. Tritium-labeled cholesterol was added as an internal standard and an aliquot of the cells was subjected to alkaline hydrolysis. The lipids were extracted using chloroform/methanol 2: 1. After adding carrier cholesterol, the lipid mixture was preparatively separated on TLC plates using chloroform/acetone 9: 1. The cholesterol zone was made visible by staining with iodine vapor, additionally detected using a TLC radio scanner and then scraped off. The amount of ^14 C-cholesterol formed was determined scintigraphically and related to mg of cell protein. The same procedure was carried out with cells from the Bame culture without preincubation with a test compound (so-called "solvent control"). The potency of the test compounds was determined by comparison of the biosynthesized ^14 C-cholesterol in test runs and in "solvent control".
# serum lipoproteins = experiment: Action on serum lipoproteins and other metabolic parameters of male rats in the subchronic test; assay type: in vivo; conditions: rat; for Body weight, % changes in the mean value relative to starting / Food consumption, % changes in the mean value relative to control / Glycerol VLDL, % change compared to control / Liver weight, % changes in the mean value relative to control / Protein LDL, % change compared to control / Protein VLDL, % change compared to control / Total cholesterol HDL, % change compared to control / Total cholesterol LDL, % change compared to control / Total cholesterol VLDL, % change compared to control: 7 administrations; for Cholesterol HDL/LDL: control standardization to 1.00
# Method: 3) Action on serum lipoproteins and other metabolic parameters of male rats in the subchronic test
# Groups of male rats of the strain HOE: WISKf (SPF 71) having a starting weight of above 180 g received the test preparations daily in the morning (sodium salts of the dihydroxycarboxylic acids of the formula II) in polyethylene glycol 400 by stomach tube; the respective control group received only the vehicle. The last (7th) administration was carried out 24 hours before taking blood and sacrificing. There was free access to food and water during the experiment. 24 hours before taking blood, which wall carried out retroorbitally under slight ether anesthesia before and after the treatment period (i.e. on the 1st and 8th day), the food was withdrawn. Total cholesterol was determined in the serum of each individual animal [CHODPAP high performance method of Boehringer Mannheim], and, as a measure of the triglycerides, total glycerol was also determined analytically from the serum pool of all the animals of one group [GPO-PAP high performance method, Boehringer Mannheim].
# Immediately after taking blood, the animals were sacrificed by dislocation of the spine, and the relative liver weight, the change in body weight and the food consumption were determined.
# For the analysis of the serum lipoproteins, the serum of all the rats of one group was pooled. The serum lipoproteins were separated using the preparative ultracentrifuge.
# The following conditions were used for the separation of the fractions VLDL, LDL and HDL:
# The determination of the protein was carried out by the method of Lowry et al. [LOWRY O. H., ROSEBOROUGH, N.J., PARR, A. L. and RANDELL, R. J.: J. Biol. Chem. 193, 265 (1951)].
# [1] = test system: microsomal lipid peroxidation; experiment: Inhibition of microsomal lipid peroxidation (in vitro); assay type: biochemical; conditions: for IC50: microsomes, read-out: IC50 (50% inhibition of lipid peroxidation)
# Method: 5) Inhibition of microsomal lipid peroxidation (in vitro)
# The inhibition of lipid peroxidation was measured under the experimental conditions described by H. Wafers and H. Sies, Eur. J. Biochem. 174, 353-357 (1988). The microsomes were obtained according to the literature cited therein. IC50 denotes the concentration of the test compound in moles per liter which causes a 50% inhibition of lipid peroxidation.
# LDL = experiment: Inhibition of Cu2+-catalyzed LDL oxidation in vitro; assay type: biochemical, porcine; conditions: 5 μM Cu2+, 2 hours at 37° C.; for IC50: fluorescence 430 nm, read-out: IC50 (50% inhibition of LDL oxidation)
# Method: 6) Inhibition of Cu^2+ -catalyzed LDL oxidation in vitro LDL was isolated from porcine plasma which contained EDTA (1 mg/ml) by ultracentrifugation in salt solutions of NaCl/NaBr between the densities 1.019 and 1.063 g/ml (cf. R. J. Havel et al., J. Clin. Invest. 43, 1345 (1955)). LDL was then dialyzed against phosphate-buffered saline (160 mM NaCl, 10 mM NaH2 PO4), pH 7.4 and stored under nitrogen at 4° C. Before the oxidation process, the LDL fractions were diluted to a final protein concentration of 0.1 mg/ml using phosphate-buffered saline and 2.5 ml aliquot parts were pre-incubated under nitrogen with the test compounds (25 μl of ethanolic solution) for 1 hour at 37° C. (cf. McLean et al., Biochemistry 1989, 28, 321). For the Cu^2+ -catalyzed oxidation of LDL, 12.5 μl of a 1 mM CuSO4 solution were added to each sample, a 5 μM Cu^2+ concentration resulting. The incubation was carried out for 2 hours at 37° C. and in an air atmosphere. The fluorescence intensity was measured at 430 nm (excitation wavelength 365 nm) (cf. Steinbrecher, U. P., J. Biol. Chem. 1987, 262, 3603). […] In addition, the inhibition using a 10^-5 N concentration of the test compound is indicated in %.
# [2] = 100 mg/kg daily by stomach tube
SMILES,IC50 (HMG-CoA reductase) [nM],IC50 (HEP G2 cells) [nM],Relative potency in % (HEP G2 cells) [%],Inhibition at 10^-5 mol/l [1] [%],IC50 [1] [nM],IC50 (LDL) [nM],also measured
"CC(C)c1cc(SC(C)(C)Sc2cc(-c3ccc(F)cc3)c(OC[C@@H](O)C[C@@H](O)CC(=O)O)c(C(C)C)c2)cc(-c2ccc(F)cc2)c1O [Example 6, Sodium 3(R),5(S)-dihydroxy-6-(2-isopropyl-4-[(3-isopropyl-4-sodio-oxy-5-p-fluorophenyl-l-phenylthio)-2-propyl-2-thio]-6-p-fluorophenylphenoxy)hexanoate]",3,1700,3,98,2700,,"Body weight, % changes in the mean value relative to starting (serum lipoproteins; 30 mg/kg daily by stomach tube): +5%; Food consumption, % changes in the mean value relative to control (serum lipoproteins; 30 mg/kg daily by stomach tube): -1%; Glycerol VLDL, % change compared to control (serum lipoproteins; 30 mg/kg daily by stomach tube): +8%; Liver weight, % changes in the mean value relative to control (serum lipoproteins; 30 mg/kg daily by stomach tube): +3%; Protein LDL, % change compared to control (serum lipoproteins; 30 mg/kg daily by stomach tube): -24%; Protein VLDL, % change compared to control (serum lipoproteins; 30 mg/kg daily by stomach tube): -4%; Total cholesterol HDL, % change compared to control (serum lipoproteins; 30 mg/kg daily by stomach tube): +13%; Total cholesterol LDL, % change compared to control (serum lipoproteins; 30 mg/kg daily by stomach tube): -26%; Total cholesterol VLDL, % change compared to control (serum lipoproteins; 30 mg/kg daily by stomach tube): +12%; Cholesterol HDL/LDL (serum lipoproteins; 30 mg/kg daily): 1.27; Body weight, % changes in the mean value relative to starting (serum lipoproteins; [2]): +5%; Food consumption, % changes in the mean value relative to control (serum lipoproteins; [2]): -1%; Glycerol VLDL, % change compared to control (serum lipoproteins; [2]): -8%; Liver weight, % changes in the mean value relative to control (serum lipoproteins; [2]): +1%; Protein LDL, % change compared to control (serum lipoproteins; [2]): +3%; Protein VLDL, % change compared to control (serum lipoproteins; [2]): -2%; Total cholesterol HDL, % change compared to control (serum lipoproteins; [2]): -3%; Total cholesterol LDL, % change compared to control (serum lipoproteins; [2]): -16%; Total cholesterol VLDL, % change compared to control (serum lipoproteins; [2]): +13%; Cholesterol HDL/LDL (serum lipoproteins; 100 mg/kg daily): 1.15"
CC(C)c1c(O)c(C(C)C)c(C(C)C)c(OC[C@@H](O)C[C@@H](O)CC(=O)O)c1-c1ccc(F)cc1 [Example 8],2,4,1250,27,,1100,
"CC(C)Sc1cc(-c2ccc(F)cc2)c(OC[C@@H](O)C[C@@H](O)CC(=O)O)c(C(C)C)c1 [Example 5, Sodium 3(R),S(S)-dihydroxy-6-[(2-p-fluorophenyl-4-isopropylthio-6-isopropyl)phenoxy]hexanoate]",8,9.2,543,0,,,
"CC(C)c1cc(Sc2ccc(F)cc2)cc(-c2ccc(F)cc2)c1O [Process Example 6, 2-(p-Fluorophenyl)-4-(p-fluorophenylthio)-6-isopropylphenol]",,,,95,3000,1000,
"CC(C)c1cc(SC(C)(C)Sc2cc(-c3ccc(F)cc3)c(OC[C@@H](O)C[C@@H](O)CC(=O)O)c(C(C)C)c2)cc(-c2ccc(F)cc2)c1OC[C@@H](O)C[C@@H](O)CC(=O)O [Example 7, 4,4-(Isopropylidenedithio)-bis-<{1-[(2S,4R)-dihydroxy-5-sodiocarboxy]pentoxy-2-isopropyl-6-p-fluorophenyl}benzene>]",1,920,5,< 10,,,"Body weight, % changes in the mean value relative to starting (serum lipoproteins; [2]): +5%; Glycerol VLDL, % change compared to control (serum lipoproteins; [2]): -3%; Liver weight, % changes in the mean value relative to control (serum lipoproteins; [2]): -1%; Protein LDL, % change compared to control (serum lipoproteins; [2]): -8%; Protein VLDL, % change compared to control (serum lipoproteins; [2]): -15%; Total cholesterol HDL, % change compared to control (serum lipoproteins; [2]): +9%; Total cholesterol LDL, % change compared to control (serum lipoproteins; [2]): -52%; Total cholesterol VLDL, % change compared to control (serum lipoproteins; [2]): -23%; Cholesterol HDL/LDL (serum lipoproteins; 100 mg/kg daily): 2.25"
Cc1cc(-c2cc(Sc3ccc(F)cc3)cc(C(C)C)c2OC[C@@H](O)C[C@@H](O)CC(=O)O)ccc1F [Example 3],4,3.8,1316,,,,
O=C(O)C[C@H](O)C[C@H](O)COc1c(-c2ccc(F)cc2)cc(Sc2ccc(F)cc2)cc1C1CC1 [Example 2],2,2.2,2273,< 10,,,
"CC(=O)Oc1c(C(C)C)c(-c2ccc(F)cc2)c(O)c(C(C)C)c1C(C)C [Process Example 25, 2,3,5-Triisopropyl-4-acetoxy-6-(p-fluorophenyl)phenol]",,,,83,4800,150,
"CC(C)c1cc(Sc2ccc(F)cc2)cc(-c2ccc(F)cc2)c1OC[C@@H]1C[C@@H](O)CC(=O)O1 [Example 10, 4(R)-Hydroxy-6(S)-[(2-p-fluorophenyl-4-p-fluorophenylthio-6-isopropyl)phenoxymethyl]-3,4,5,6-tetrahydro-2H-pyran-2-one]",,,,,,> 10000,Inhibition at 10^-5 M (LDL; 10^-5 M): 23%
